These are literature values, as cited in US20130344444A1, “PROCESS FOR MAKING LITHOGRAPHIC PRINTING PLATE” (FUJIFILM Corporation, priority 2011, published 2013).

As to `OCc1ccccc1` [Benzyl alcohol, reference compound], the solubility in water is reported as 4.0 g/100 mL of water.

For `CCCCC(CC)COCCOCCO` (stereo not drawn) [Diethylene glycol mono-2-ethylhexyl ether], the solubility in water is given as 0.3 g/100 mL of water.

Turning to `CCCCCCOCCO` [Ethylene glycol mono-n-hexyl ether], the solubility in water was 1.0 g/100 mL of water.

Take `CC(C)(C)OCCO` [Ethylene glycol mono-t-butyl ether]: the “solubility in water (in words)” value is given as “mutually mixing”.

Regarding `OCCOc1ccccc1` [Ethyleneglycol monophenyl ether, reference compound], the solubility in water is given as 2.7 g/100 mL of water.

In the case of `CCCCOCC(C)O` (stereo not drawn) [Propylene glycol mono-n-butyl ether], the solubility in water was 4.4 g/100 mL of water.
